Data on 16 compounds can be found in patent publication US10584134B2, “Use of physiological cooling active ingredients, and agents containing such active ingredients” (SYMRISE AG, priority 2009, dated 2020).

By EC50 is commonly meant the midpoint of the concentration-response curve. A high value points to a less potent agent.

For data set [1] the following is noted: cited from earlier work; for cooling action: J. Soc. Cosmet. Chem. 1978, 29, 185-200, study of approximately 1200 compounds.
Data set [2] concerns panel of sensorially trained experts. The data set is described as follows: Sensorial assessment of toothpastes containing the flavourings (Examples S-1 to S-4). In kind it is in vivo, human. Conditions: flavouring 1.2 wt. % in toothpaste base, usage conditions. The protocol: The flavourings obtained in this way were worked into a standard silica toothpaste base in a concentration of 1.2 wt. %. The toothpastes were tested by a panel of sensorially trained experts under usage conditions. The sensorial assessments were as follows: very pleasant, rich and voluminous minty freshness with a comparatively fast onset, strong and marked and comparatively very long-lasting cooling fresh impression, wherein it was noticeable that the sensation of coldness was rapidly perceptible in the whole of the oral cavity. Additionally the flavour was assessed as being softer and more neutral and less sharp than without the compounds according to the invention.
The flavourings in a concentration of 1.2% were worked into a toothpaste base comprising an amount of 65% of sodium bicarbonate. The toothpastes were tested under usage conditions and assessed by a panel of sensorially trained experts. In each case a pleasant, powerful spearmint flavour in combination with a voluminous and long-lasting fresh taste was noted.
The flavourings obtained in this way were in each case worked into a standard silica toothpaste base in a concentration of 1.2 wt. %. The toothpastes were tested by a panel of sensorially trained experts under usage conditions. […]

The next data set addresses human TRPM8 receptor (Homo sapiens (Human), UniProt Q7Z2W7). The data set is described as follows: Assay on TRPM8 modulators (Ca2+-sensitive dye, HEK293-TRPM8 test cells, EC50 determination). In kind it is cell-based. Conditions: assay according to reference example 3. The text has this: As a test cell system the human TRPM8 DNA (see plasmid pInd-M8 above) was used to prepare a stable transfixed HEK293 cell line. Here preference is for HEK293 which via the plasmid introduced offers the possibility of induction of the TRPM8 expression by means of tetracycline.
The agonisation or antagonisation of the receptor can be quantified by means of a Ca^2+-sensitive dye (e.g. FURA, Fluo-4, etc.).
To begin with, in a manner known per se, in cell culture flasks a fresh culture of transformed HEK cells is prepared. The HEK293-TRPM8 test cells are removed using trypsin from the cell culture flasks and 40 000 cells/well are sown with 100 μl medium in 96-well plates (Greiner #655948 Poly-D-lysine coated). In order to induce the TRPM8 receptor the growth medium tetracycline is mixed in (DMEM/HG, 10% FCS tetracycline-free, 4 mM L-glutamine, 15 μg/ml blasticidin, 100 μg/ml hygromycin B, 1 μg/ml tetracycline). The next day the cells are charged with Fluo-4Am dye and the test is performed.
The test substances are used in triplicate in concentrations of between 0.1 and 200 μm in the assay. Normally the compounds are kept ready in DMSO solutions and diluted for the assay to a maximum DMSO concentration of 2%.

Sequence of human TRPM8 receptor (Q7Z2W7 whole entry): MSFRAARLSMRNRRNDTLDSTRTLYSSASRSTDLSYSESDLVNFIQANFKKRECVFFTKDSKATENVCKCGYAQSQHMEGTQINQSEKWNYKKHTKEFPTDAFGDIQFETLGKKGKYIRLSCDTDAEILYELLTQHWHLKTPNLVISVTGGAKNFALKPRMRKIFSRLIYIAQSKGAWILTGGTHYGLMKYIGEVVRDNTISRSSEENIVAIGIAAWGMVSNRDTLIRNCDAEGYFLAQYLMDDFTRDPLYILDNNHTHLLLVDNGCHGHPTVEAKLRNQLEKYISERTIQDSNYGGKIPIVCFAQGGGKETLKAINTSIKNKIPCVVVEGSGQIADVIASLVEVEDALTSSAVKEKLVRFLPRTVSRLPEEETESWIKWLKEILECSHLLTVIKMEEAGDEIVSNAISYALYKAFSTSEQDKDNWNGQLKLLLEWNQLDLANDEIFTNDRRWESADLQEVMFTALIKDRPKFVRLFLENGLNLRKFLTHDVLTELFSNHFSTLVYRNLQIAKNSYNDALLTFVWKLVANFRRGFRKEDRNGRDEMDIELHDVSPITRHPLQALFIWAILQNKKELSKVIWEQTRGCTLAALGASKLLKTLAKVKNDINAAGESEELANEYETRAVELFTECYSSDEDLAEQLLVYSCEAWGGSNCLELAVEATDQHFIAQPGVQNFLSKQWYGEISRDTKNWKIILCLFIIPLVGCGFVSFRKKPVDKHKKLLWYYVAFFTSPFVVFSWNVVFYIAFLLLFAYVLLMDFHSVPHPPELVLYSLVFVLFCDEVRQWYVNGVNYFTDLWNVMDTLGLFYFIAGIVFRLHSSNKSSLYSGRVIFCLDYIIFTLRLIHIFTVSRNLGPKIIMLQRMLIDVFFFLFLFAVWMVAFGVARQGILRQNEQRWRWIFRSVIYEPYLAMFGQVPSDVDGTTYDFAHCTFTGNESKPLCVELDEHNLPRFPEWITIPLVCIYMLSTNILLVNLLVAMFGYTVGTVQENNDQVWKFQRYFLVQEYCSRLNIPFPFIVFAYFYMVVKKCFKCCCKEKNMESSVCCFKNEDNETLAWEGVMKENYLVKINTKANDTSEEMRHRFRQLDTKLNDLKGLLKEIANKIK

On to `CCOC(=O)CNC(=O)C1CC(C)CCC1C(C)C` (stereo not drawn) [WS5, N-[[5-methyl-2-(1-methylethyl)cyclohexyl]carbonyl]glycine ethyl ester], for which the cooling action result in data set [1] was “most strongly cooling active ingredients”. The irritancy entry in data set [1] (US 2005/0222256) is “strongly irritant”.
With `CCNC(=O)C1CC(C)CCC1C(C)C` (stereo not drawn) [WS-3, menthane-3-carboxylic acid-N-ethylamide], the “sensorial assessment of cooling fresh impression” value in data set [2] is “less powerful, less voluminous and less long-lasting”. Besides, in data set [1], the cooling action entry was “most strongly cooling active ingredients”.
Compound `COc1ccc(CCC(=O)N(c2ccccn2)C2CCCCC2)cc1` [Compound 3-42] displayed a 50% effective concentration (EC50) on human TRPM8 receptor (Table C, structure type 3) of 3300 nM.
In the case of `CCN(C(=O)/C=C/c1ccc2c(c1)OCO2)C1CCCCC1` [Compound 3-4], the EC50 on human TRPM8 receptor (Table C, structure type 3) turned out to be 800 nM.
`O=C(/C=C/c1ccc2c(c1)OCO2)N(C1CCCCC1)C1CCCCC1` [Compound 3-2]: the concentration giving a half-maximal response (EC50) on human TRPM8 receptor (Table C, structure type 3) was 11800 nM.
For `CC(C)N(C(=O)/C=C/c1ccc2c(c1)OCO2)C1CCCCC1` [Compound 3-5, (E)-3-benzo[1,3]dioxol-5-yl-N-cyclohexyl-N-isopropyl-acrylamide], on human TRPM8 receptor (Table C, structure type 3), the concentration giving a half-maximal response (EC50) turned out to be 200 nM.
For the compound `O=C(/C=C/c1ccc2c(c1)OCO2)N(c1ccccc1)C1CCCCC1` [Compound 3-3], the EC50 on human TRPM8 receptor (Table C, structure type 3) stood at 900 nM.
In turn, `O=C(/C=C/c1ccccc1)N(c1ccccc1)C1CCCCC1` [Compound 3-26, (E)-N-cyclohexyl-3,N-diphenyl-acrylamide] returned a concentration giving a half-maximal response (EC50) on human TRPM8 receptor (Table C, structure type 3) of 600 nM.
Take `Cc1ccc(/C=C/C(=O)N(C2CCCCC2)C2CCCCC2)cc1` [Compound 3-33]: the EC50 on human TRPM8 receptor (Table C, structure type 3) came to 2100 nM.
On to `COc1cccc(/C=C/C(=O)N(c2ccccn2)C2CCCCC2)c1OC` [Compound 3-38], for which the EC50 at human TRPM8 receptor (Table C, structure type 3) worked out at 700 nM.
The compound `O=C(/C=C/c1ccccc1Cl)N(c1ccccn1)C1CCCCC1` [Compound 3-41] returned an EC50 on human TRPM8 receptor (Table C, structure type 3) of 700 nM.
Regarding `CC[C@@H](C)Nc1nc(-c2ccccn2)ncc1OC` (stereo in doubt) [Compound 2-5, Sec-butyl-(5-methoxy-2-pyridin-2-yl-pyrimidin-4-yl)-amine], a half-maximal effect at human TRPM8 receptor (Table B, structure type 2) (EC50) was put at 100 nM.
For the compound `CC1(C)CC(=O)C2=C(C1)N1CCc3ccccc3C1CC21[S+]([O-])CCS1(=O)=O` (stereo not drawn) [Compound 1-8], the half-maximal effective concentration (EC50) on human TRPM8 receptor (Table A, structure type 1) was found to be 9800 nM.
At human TRPM8 receptor (Table A, structure type 1), `C[C@H]1OC(=O)C2=C1N1CCc3ccccc3C1CC21SCCCS1` (stereo partly drawn) [Compound 1-6] came in with an EC50 of 200 nM.
As to `CC1CCC(C(C)C)C(C(=O)NCC(=O)O)C1` [N^α-(L-menthanecarbonyl)glycine], the cooling action result in data set [1] is “very weak cooling action”.
Regarding `COc1cnc(-c2ccccn2)nc1NC(C)CCO` (stereo not drawn) [Compound 2-9], the midpoint of the response at human TRPM8 receptor (Table B, structure type 2), the EC50, lay at 1000 nM.
